The values that follow come from patent US4415577A, “Bis-sparteine derivatives and method of using same in therapy” (Kali-Chemie Pharma GmbH, priority 1980, dated 1983).

Data set [1] can be described thus: acute toxicity (LD50) in mice after oral administration. In kind it is in vivo, mouse (male NMRI). The following applies: mouse, in vivo; male NMRI-mice, oral, 50% mortality on the 7th day; read-out: LD50 per os. How it is done:
(§1) The acute toxicity of the compounds is determined in male NMRI-mice (body weight range 18-22 g) after oral (p.o) administration. The LD50 is defined as that dose in μmol/kg which causes a 50% mortality rate of the test animals on the 7th day after application. The calculation of the LD50 is carried out by probitanalysis (see L. Cavalli-Sforza, Grundbegriffe der Biometric, Gustav Fischer Verlag Stuttgart (1964).

For data set [2], the system named is aconitin-induced arrhythmic effects. Description: aconitin-induced arrhythmia test (Aconitine test), oral. In kind it is in vivo, rat (male Wistar). The settings on record: for minimal effective dose: Rattus norvegicus, po, 3 h, read-out: Aconitine test, effective dose per os. How it is done:
The influence of the novel compound on aconitin-induced arrhythmic effects is determined on male Wistar rats (weighing 280-350 g) which are treated with an aconitin infusion according to the method of Raschak (M. Raschak, Arzneim. Forschung (Drug Research) 25 (1975) pp. 639-641). The effective dose which is given in μmol/kg, is the dose which cause a significant difference in time between the starting of the aconitin-induced arrhythmic effect in animals treated with the active ingredient and the starting of this aconitin-induced effect in an untreated control group of animals. In order to be considered effective the dose must cause a significant prolongation of the period until the aconitin-induced arrhythmic effects start, and it must be effective against at least two of the aconitin-induced arrhythmic symptoms (extrasystoles, ventricular flutter, ventricular tachycardia). The test compound is applied orally inform of a 2% suspension of tylose ^R MH 50 three hours before the aconitin-infusion is started.
As a standard dose one tenth of the LD50 in mice is used. If a test compound is effective at this dose, the dose is reduced in a following test. The statistical t-test method according to Student using logarithmic values of the effective values is used for significance testing (see Lothar Sachs, Statistische Auswertungsmethoden, Springer Verlag 1969).

For the next data set, the system named is isolated left atria. Briefly: prolongation of the functional refractory period (FRP), double stimulus method of Govier. On the set-up: species or system guinea pig (female albino-pirbright-white). The settings on record: Cavia porcellus, 0.3 h; isolated left atria of female guinea pigs, 18 minutes after application; read-out: FRP 125% (concentration causing prolongation of the functional refractory period to 125%).

The subject of another data set is male NMRI-mice. Description: acute toxicity (LD50) in mice after oral administration. The following applies: comparison in words. In kind it is in vivo, mouse (male NMRI). The procedure:
as §1

Each structure is given as a SMILES string. Where a name gives a salt, the structure may show the parent alone.

Usually LD50 stands for the dose at which mortality reaches 50%. As for `C1CCN2C[C@@H]3C[C@@H]([C@@H]([C@@H]4[C@@H]5C[C@@H](CN6CCCC[C@H]56)[C@@H]5CCCCN45)N4CCCC[C@@H]34)[C@H]2C1` [17S,17'S-bissparteine ditartrate], the LD50 at 168 h in data set [1] was more than 1900 µmol/kg. Besides, the minimal effective dose in data set [2] came to 33 µmol/kg. Besides, the EC (125%) with isolated left atria is 5 µM.
For `C1CCN2C[C@@H]3C[C@@H]([C@@H]([C@@H]4[C@@H]5C[C@@H](CN6CCCC[C@H]56)[C@@H]5CCCCN45)N4CCCC[C@@H]34)[C@H]2C1` [17S,17'S-bissparteine], the “toxicity compared with known sparteine derivatives” value in the data set with male NMRI-mice is “less toxic”. Further, in data set [2] (conclusion in words from table 1), the “effectiveness compared with the known tested sparteine compounds” value is “more effective than the known tested sparteine compounds”. In addition, the “effect after oral application, after a period of 3 hours” value in data set [2] (oral, after 3 hours, same conditions for known compounds) was “retains its good effect even after a period of 3 hours”.
As for `CCCCCC1C2CC(CN3CCCCC23)C2CCCCN21` (stereo not drawn) [Pentyl sparteine tartrate], the median lethal dose (LD50) at 168 h in data set [1] was 1800 µmol/kg. In data set [2], the minimal effective dose was more than 180 µmol/kg. Moreover, the EC (125%) in the data set on isolated left atria came to 9 µM.
On the same counts, the results for `C1CCN2C[C@@H]3C[C@@H](CN4CCCC[C@@H]34)[C@H]2C1` [Sparteine sulfate] are 540 µmol/kg, more than 54 µmol/kg and 34 µM.
